Reference: the NIST ThermoML archive (doi:10.1016/j.jct.2018.11.010)

Assay: xn = mol fraction of the nth substance listed
Conditions: Liquid, Vibrating tube method

CCCCCCCO [heptan-1-ol] + CCCCOCCCC
mass density [kg/m3]
Conditions | x2 = 0 | x2 = 0.1488 | x2 = 0.3201 | x2 = 0.4944 | x2 = 0.7014 | x2 = 0.8534
373.15 K, 50000 kPa | 800.3 | 792.1 | 782.7 | 774 | 763.4 | 756.5
373.15 K, 55000 kPa | 803.4 | 795.2 | 786 | 777.5 | 767.1 | 760.3
373.15 K, 60000 kPa | 806.3 | 798.3 | 789.2 | 780.8 | 770.6 | 763.9
373.15 K, 65000 kPa | 809.2 | 801.3 | 792.3 | 784 | 774 | 767.4
373.15 K, 70000 kPa | 811.9 | 804.1 | 795.3 | 787.1 | 777.2 | 770.6
373.15 K, 80000 kPa | 817.2 | 809.7 | 801.1 | 793.1 | 783.5 | 777.1
373.15 K, 90000 kPa | 822.3 | 814.9 | 806.5 | 798.7 | 789.3 | 783.1
373.15 K, 100000 kPa | 827 | 819.8 | 811.5 | 803.9 | 794.8 | 788.7
373.15 K, 110000 kPa | 831.6 | 824.5 | 816.5 | 809.1 | 800 | 794
373.15 K, 120000 kPa | 835.9 | 829 | 821.1 | 813.8 | 805 | 799.1
373.15 K, 130000 kPa | 840.2 | 833.4 | 825.6 | 818.4 | 809.8 | 803.9
373.15 K, 140000 kPa | 844.1 | 837.4 | 829.8 | 822.8 | 814.3 | 808.6
393.15 K, 100 kPa | 744.9 | – | – | – | – | –
393.15 K, 1000 kPa | 745.8 | 734.9 | 722.5 | 710.7 | 696.6 | 687.4
393.15 K, 5000 kPa | 750.2 | 739.7 | 727.6 | 716.3 | 702.7 | 693.9
393.15 K, 10000 kPa | 755.3 | 745.1 | 733.5 | 722.7 | 709.7 | 701.2
393.15 K, 15000 kPa | 760.1 | 750.3 | 739 | 728.6 | 716 | 708
393.15 K, 20000 kPa | 764.6 | 755.1 | 744.2 | 734 | 721.9 | 714
393.15 K, 25000 kPa | 768.8 | 759.6 | 749 | 739.1 | 727.4 | 719.7
393.15 K, 30000 kPa | 772.9 | 763.8 | 753.5 | 743.9 | 732.4 | 725
393.15 K, 35000 kPa | 776.8 | 767.9 | 757.8 | 748.5 | 737.3 | 730
393.15 K, 40000 kPa | 780.4 | 771.8 | 761.9 | 752.7 | 741.8 | 734.8
393.15 K, 45000 kPa | 783.9 | 775.4 | 765.8 | 756.8 | 746 | 739.1
393.15 K, 50000 kPa | 787.3 | 779 | 769.4 | 760.7 | 750.1 | 743.4
393.15 K, 55000 kPa | 790.7 | 782.5 | 773.2 | 764.5 | 754.2 | 747.5
393.15 K, 60000 kPa | 793.8 | 785.7 | 776.5 | 768 | 757.9 | 751.3
393.15 K, 65000 kPa | 796.8 | 788.9 | 779.8 | 771.4 | 761.5 | 755
393.15 K, 70000 kPa | 799.8 | 792 | 783.1 | 774.9 | 765 | 758.7
393.15 K, 80000 kPa | 805.5 | 797.8 | 789.2 | 781.2 | 771.6 | 765.4
393.15 K, 90000 kPa | 810.9 | 803.5 | 795 | 787.2 | 777.9 | 771.8
393.15 K, 100000 kPa | 815.9 | 808.6 | 800.4 | 792.8 | 783.6 | 777.7
393.15 K, 110000 kPa | 820.8 | 813.7 | 805.6 | 798.2 | 789.3 | 783.5
393.15 K, 120000 kPa | 825.3 | 818.3 | 810.4 | 803.1 | 794.3 | 788.7
393.15 K, 130000 kPa | 829.8 | 822.9 | 815.1 | 808 | 799.4 | 793.8
393.15 K, 140000 kPa | 834 | 827.3 | 819.7 | 812.7 | 804.2 | 798.7
